The values below come from article PMC8379669 (Computational and Structural Biotechnology Journal, 2021).

Data set [1] addresses AChE from Electrophorus electricus (electric eel) (Electrophorus electricus, UniProt O42275). Description: In vitro AChE inhibition assay. Type of data set: biochemical.
Data set [2] deals with BChE from equine serum (Equus caballus, UniProt P81908). Nature of the data set: biochemical. The settings on record: for IC50 values (mean ± SD) BChE: BChE from equine serum. Type of data set: biochemical.
Data set [3] has as its target GluN2B containing NMDAR (GluN1/GluN2B) in HEK-293 cells (Homo sapiens, UniProt Q05586+Q13224). Nature of the data set: Cell-based NMDAR activity assay. The settings on record: for antagonism of NMDAR activity, in words: initial screening studies; for inhibition at 50 µM / inhibition at 100 µM: HEK293, read-out: inhibition of NMDAR activity; for category of NMDAR inhibitor: based on NMDAR IC50.

The test system of data set [4] is HepG2 cells. Description: MTT cytotoxicity assay on HepG2 cells. The settings on record: 10-300 μM, 24 h. For orientation: Tetrazolium assays rely on reduction of a dye to a coloured formazan, in cell work by metabolically active cells.
Data set [5] concerns rat primary cortical neurons. Nature of the data set: Glutamate-induced excitotoxicity, MAP2 immunostaining and DAPI staining. The class given is cell-based. The settings on record: DIV9 neurons, 100 µM glutamate and 10 µM glycine.

In general, IC50 refers to the midpoint of a concentration-inhibition curve. For orientation: inhibition means the change of the read-out against control, counted positive when it falls.

Chain of BChE from equine serum (P81908 whole entry): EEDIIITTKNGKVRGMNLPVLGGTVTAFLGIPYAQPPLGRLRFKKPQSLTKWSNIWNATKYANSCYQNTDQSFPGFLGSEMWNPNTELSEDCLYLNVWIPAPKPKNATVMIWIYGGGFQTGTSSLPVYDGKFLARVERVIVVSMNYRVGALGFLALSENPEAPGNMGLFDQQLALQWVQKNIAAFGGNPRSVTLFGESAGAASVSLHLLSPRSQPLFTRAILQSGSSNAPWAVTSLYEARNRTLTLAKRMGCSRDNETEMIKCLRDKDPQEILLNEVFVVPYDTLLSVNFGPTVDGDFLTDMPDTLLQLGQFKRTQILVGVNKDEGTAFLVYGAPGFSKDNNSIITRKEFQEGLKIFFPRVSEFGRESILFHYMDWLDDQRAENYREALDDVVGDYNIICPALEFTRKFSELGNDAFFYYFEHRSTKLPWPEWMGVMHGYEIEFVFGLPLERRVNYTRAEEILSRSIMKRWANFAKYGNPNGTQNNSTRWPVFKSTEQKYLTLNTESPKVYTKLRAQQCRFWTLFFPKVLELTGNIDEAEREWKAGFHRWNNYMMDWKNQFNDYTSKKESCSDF
Chain of GluN2B containing NMDAR (GluN1/GluN2B) in HEK-293 cells (Q13224 27-1484, species assumed, other chains not shown): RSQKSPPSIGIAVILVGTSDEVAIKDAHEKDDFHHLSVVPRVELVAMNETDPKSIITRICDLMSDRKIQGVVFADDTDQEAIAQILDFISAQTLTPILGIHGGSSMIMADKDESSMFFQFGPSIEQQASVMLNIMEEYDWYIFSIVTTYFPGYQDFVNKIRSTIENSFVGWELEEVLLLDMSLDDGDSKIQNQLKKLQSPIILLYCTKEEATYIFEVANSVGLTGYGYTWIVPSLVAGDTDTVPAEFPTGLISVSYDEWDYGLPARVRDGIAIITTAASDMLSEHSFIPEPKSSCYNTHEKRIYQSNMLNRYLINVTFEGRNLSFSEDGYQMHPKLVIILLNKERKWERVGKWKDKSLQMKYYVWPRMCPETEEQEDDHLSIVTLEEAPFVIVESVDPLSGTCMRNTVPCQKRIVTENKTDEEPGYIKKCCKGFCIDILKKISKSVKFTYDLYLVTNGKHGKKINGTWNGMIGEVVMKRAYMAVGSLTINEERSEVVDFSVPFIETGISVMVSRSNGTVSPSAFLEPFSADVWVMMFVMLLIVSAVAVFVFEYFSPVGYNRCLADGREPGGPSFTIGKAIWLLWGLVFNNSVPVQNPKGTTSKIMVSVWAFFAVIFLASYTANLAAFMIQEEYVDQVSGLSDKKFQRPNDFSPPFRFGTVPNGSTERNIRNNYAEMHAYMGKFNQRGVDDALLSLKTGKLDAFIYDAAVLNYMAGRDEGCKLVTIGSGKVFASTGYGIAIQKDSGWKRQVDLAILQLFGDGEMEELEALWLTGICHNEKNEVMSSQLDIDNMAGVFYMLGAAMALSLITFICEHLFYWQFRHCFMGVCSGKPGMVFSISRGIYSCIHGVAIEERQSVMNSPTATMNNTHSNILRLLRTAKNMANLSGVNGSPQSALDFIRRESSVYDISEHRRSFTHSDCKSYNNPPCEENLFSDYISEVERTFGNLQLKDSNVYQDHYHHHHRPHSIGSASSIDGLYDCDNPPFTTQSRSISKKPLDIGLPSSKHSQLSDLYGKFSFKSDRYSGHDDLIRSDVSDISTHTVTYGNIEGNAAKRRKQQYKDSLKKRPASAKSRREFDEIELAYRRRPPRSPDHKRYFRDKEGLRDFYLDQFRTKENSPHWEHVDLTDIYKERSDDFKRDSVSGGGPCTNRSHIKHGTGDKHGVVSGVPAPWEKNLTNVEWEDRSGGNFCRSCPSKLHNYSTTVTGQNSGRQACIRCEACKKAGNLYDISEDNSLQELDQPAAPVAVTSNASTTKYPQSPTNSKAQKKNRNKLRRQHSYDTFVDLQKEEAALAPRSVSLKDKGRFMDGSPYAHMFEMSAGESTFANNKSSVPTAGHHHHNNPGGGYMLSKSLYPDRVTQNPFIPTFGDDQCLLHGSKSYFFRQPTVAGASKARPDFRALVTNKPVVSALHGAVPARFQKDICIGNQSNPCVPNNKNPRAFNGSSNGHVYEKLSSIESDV
Chain of AChE from Electrophorus electricus (electric eel) (O42275 24-633): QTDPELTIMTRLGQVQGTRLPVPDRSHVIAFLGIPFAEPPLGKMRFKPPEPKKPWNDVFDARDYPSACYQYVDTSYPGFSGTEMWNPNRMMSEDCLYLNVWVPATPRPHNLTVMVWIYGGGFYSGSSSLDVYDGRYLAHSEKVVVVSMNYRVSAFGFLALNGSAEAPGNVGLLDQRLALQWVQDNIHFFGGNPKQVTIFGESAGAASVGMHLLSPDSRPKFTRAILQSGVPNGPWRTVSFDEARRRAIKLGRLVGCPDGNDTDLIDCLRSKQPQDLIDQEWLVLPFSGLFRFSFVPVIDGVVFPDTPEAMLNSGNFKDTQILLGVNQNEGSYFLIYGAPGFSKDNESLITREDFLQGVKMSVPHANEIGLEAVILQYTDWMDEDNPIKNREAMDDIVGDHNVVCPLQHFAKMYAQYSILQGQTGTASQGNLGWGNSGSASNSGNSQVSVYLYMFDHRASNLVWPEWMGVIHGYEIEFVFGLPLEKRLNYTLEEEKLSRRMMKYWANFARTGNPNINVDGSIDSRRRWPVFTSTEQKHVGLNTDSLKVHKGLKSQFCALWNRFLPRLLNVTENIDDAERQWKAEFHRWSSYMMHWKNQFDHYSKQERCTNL

As for `Nc1c2c(nc3cc(-c4ccoc4)ccc13)CCCC2` [Compound 212, 6-(furan-3-yl)-1,2,3,4-tetrahydroacridin-9-amine], the 50% inhibitory concentration (IC50) in data set [1] came to 53.6 ± 4.39 nM. Besides, in data set [2], half-maximal inhibition (IC50) required 990 ± 50 nM and the “IC50 values (mean ± SD) BChE” value is reported as “submicromolar”. In addition, in data set [3], the IC50 stood at 16400 ± 2760 nM and the “antagonism of NMDAR activity, in words” value is on record as “effective in antagonizing NMDAR activity”. Further, the “cytotoxicity on HepG2 cells, in words” value in data set [4] is “non-toxic”.
For the molecule `CCOC(=O)C1CCc2nc3cc(-c4cnn(C)c4)ccc3c(N)c2C1` (stereo not drawn) [Compound 10, Ethyl-9-amino-6-(1-methyl-1H-pyrazol-4-yl)-1,2,3,4-tetrahydroacridine-2-carboxylate], the half-maximal inhibitory concentration (IC50) amounted to 107 ± 8.7 nM in data set [1], 4390 ± 280 nM in data set [2] and 31100 ± 4800 nM in data set [3].
Consider `NNC(=O)C1CCc2nc3cc(Br)ccc3c(N)c2C1` (stereo not drawn) [Compound 8, 9-Amino-6-bromo-1,2,3,4-tetrahydroacridine-2-carbohydrazide], for which the figures for the IC50 in data set [1] and in data set [2] were 138 ± 16.1 nM and 20400 ± 2110 nM, respectively.
In data set [1], `Nc1c2c(nc3cc(-c4ccc(C(F)(F)F)cc4)ccc13)CCCC2` [Compound 211, 6-(4-(trifluoromethyl)phenyl)-1,2,3,4-tetrahydroacridin-9-amine] gave an IC50 of 74.6 ± 8.29 nM. This molecule returned an IC50 in data set [2] of 3970 ± 710 nM. In data set [3], the IC50 amounted to 490 ± 140 nM, the inhibition at 50 µM is roughly 100%, the inhibition at 100 µM was roughly 100% and the “category of NMDAR inhibitor” value is recorded as “potent (potent (IC50 < 5 μM))”. For the same molecule, the “antagonism of NMDAR activity, in words” value in data set [3] is reported as “effective in antagonizing NMDAR activity”. Also, the “number of punctate cells” value in data set [3] (5 μM, with NMDAR agonists and Ca2+ (Fig. 2B)) is recorded as “Reduction in the number of punctate cells”. Further, in data set [5], the “condensed nuclei / viable cells (DAPI staining) after glutamate” value (shortened to “condensed nuclei / viable cells”) was “clear decrease in the number of condensed nuclei”; the “decrease in MAP2 positive cells and loss of neuronal architecture caused by glutamate” value is “prevented”. Besides, the “cytotoxicity on HepG2 cells, in words” value in data set [4] is given as “slight toxicity”.
As for `CCOC(=O)C1CCc2nc3cc(-c4ccc(F)cc4)ccc3c(N)c2C1` (stereo not drawn) [Compound 107, ethyl 9-amino-6-(4-fluorophenyl)-1,2,3,4-tetrahydroacridine-2-carboxylate], the results for the IC50 in data set [1], in data set [2] and in data set [3] were 135 ± 10.3 nM, 1350 ± 90 nM and 15800 ± 3440 nM, respectively.
For the molecule `CCOC(=O)C1CCc2nc3cc(Br)ccc3c(N)c2C1` (stereo not drawn) [Compound 5, Ethyl 9-amino-6-bromo-1,2,3,4-tetrahydroacridine-2-carboxylate], the IC50 was 100 ± 7.2 nM in data set [1] and 7380 ± 210 nM in data set [2].
Take `CNC(=O)C1CCc2nc3cc(-c4cnn(C)c4)ccc3c(N)c2C1` (stereo not drawn) [Compound 14, 9-amino-N-methyl-6-(1-methyl-1H-pyrazol-4-yl)-1,2,3,4-tetrahydroacridine-2-carboxamide]: it took 132 ± 7.7 nM to reach half-maximal inhibition in data set [1] (IC50). In data set [2], this molecule gave a 50% inhibitory concentration (IC50) of 16400 ± 540 nM. In data set [3], the half-maximal inhibitory concentration (IC50) amounted to 33900 ± 8410 nM and the “category of NMDAR inhibitor” value is “reduced”. Moreover, in data set [5], the “condensed nuclei / viable cells” value is listed as “clear decrease in the number of condensed nuclei”; the “decrease in MAP2 positive cells and loss of neuronal architecture caused by glutamate” value was “prevented”. Besides, the “cytotoxicity on HepG2 cells, in words” value in data set [4] is “non-toxic”.
For `C[C@]12N[C@H](Cc3ccccc31)c1ccccc12` [MK-801, reference compound], the “condensed nuclei / viable cells” value in data set [5] is “prevented”.
For the molecule `NNC(=O)C1CCc2nc3ccccc3c(N)c2C1` (stereo not drawn) [Compound 17, 9-amino-1,2,3,4-tetrahydroacridine-2-carbohydrazide], the IC50 in data set [1] was determined as 19.3 ± 0.47 nM. Also, the “antagonism of NMDAR activity, in words” value in data set [3] is given as “could not effectively block NMDAR activity”.
With `Nc1c2c(nc3cc(-c4ccc(F)cc4)ccc13)CCCC2` [Compound 209, 6-(4-fluorophenyl)-1,2,3,4-tetrahydroacridin-9-amine], the IC50 in data set [1] came to 76 ± 3.79 nM. Also, the IC50 in data set [2] was 1030 ± 170 nM. For the same molecule, in data set [3], the half-inhibitory concentration (IC50) worked out at 3360 ± 860 nM, the “fold increase in NMDAR potency compared to 107” value is “About 4 fold”, the inhibition at 50 µM is roughly 100% and the inhibition at 100 µM is roughly 100%. In addition, the “antagonism of NMDAR activity, in words” value in data set [3] is listed as “effective in antagonizing NMDAR activity”. Further, the “cytotoxicity on HepG2 cells, in words” value in data set [4] is “non-toxic”.
On to `Nc1c2c(nc3cc(-c4cc[nH]n4)ccc13)CCCC2` [Compound 204, 6-(1H-pyrazol-3-yl)-1,2,3,4-tetrahydroacridin-9-amine], for which it took 137 ± 7.35 nM to reach half-maximal inhibition in data set [1] (IC50). For the same molecule, in data set [2], half-maximal inhibition (IC50) required 960 ± 70 nM and the “IC50 values (mean ± SD) BChE” value is reported as “submicromolar”. Further, in data set [3], the IC50 is 14600 ± 4320 nM; the inhibition at 100 µM was roughly 100%; the “antagonism of NMDAR activity, in words” value is “effective in antagonizing NMDAR activity”. In data set [4], the “cytotoxicity on HepG2 cells, in words” value is recorded as “non-toxic”.
As to `Nc1c2c(nc3cc(-c4cncnc4)ccc13)CCCC2` [Compound 203, 6-(pyrimidin-5-yl)-1,2,3,4-tetrahydroacridin-9-amine], the IC50 in data set [1] was 18.5 ± 2.09 nM; in data set [2] it was 1500 ± 200 nM; in data set [3] it was 28100 ± 5100 nM. Also, in data set [3], the “antagonism of NMDAR activity, in words” value is given as “effective in antagonizing NMDAR activity”. The “cytotoxicity on HepG2 cells, in words” value in data set [4] is reported as “slight toxicity”.
With `Nc1c2c(nc3cc(-c4ccc(OC(F)(F)F)cc4)ccc13)CCCC2` [Compound 206, 6-(4-(trifluoromethoxy)phenyl)-1,2,3,4-tetrahydroacridin-9-amine], half-maximal inhibition in data set [1] (IC50) was put at 184 ± 19.2 nM. Moreover, the IC50 in data set [2] is 1210 ± 160 nM. Moreover, in data set [3], the IC50 amounted to 9190 ± 2680 nM; the inhibition at 100 µM is roughly 100%; the “antagonism of NMDAR activity, in words” value was “effective in antagonizing NMDAR activity”.
`Nc1c2c(nc3cc(-c4cccnc4)ccc13)CCCC2` [Compound 214, 6-(pyridin-3-yl)-1,2,3,4-tetrahydroacridin-9-amine]: in data set [1], 49.4 ± 2.37 nM corresponded to half-maximal inhibition (IC50). Also, in data set [2], half-maximal inhibition (IC50) was put at 820 ± 90 nM and the “IC50 values (mean ± SD) BChE” value is “submicromolar”. For the same molecule, in data set [3], the midpoint of inhibition, the IC50, lay at 38800 ± 9640 nM and the “antagonism of NMDAR activity, in words” value was “effective in antagonizing NMDAR activity”. The “cytotoxicity on HepG2 cells, in words” value in data set [4] was “non-toxic”.
Turning to `N#Cc1ccc(-c2ccc3c(N)c4c(nc3c2)CCCC4)cc1` [Compound 205, 4-(9-amino-5,6,7,8-tetrahydroacridin-3-yl)benzonitrile], in data set [1], 84.2 ± 1.8 nM corresponded to half-maximal inhibition (IC50). In data set [2], the 50% inhibitory concentration (IC50) worked out at 700 ± 80 nM and the “IC50 values (mean ± SD) BChE” value was “submicromolar”. In addition, in data set [3], 2840 ± 460 nM corresponded to half-maximal inhibition (IC50); the inhibition at 100 µM was roughly 100%; the “antagonism of NMDAR activity, in words” value was “effective in antagonizing NMDAR activity”. In data set [4], the “cytotoxicity on HepG2 cells, in words” value is listed as “slight toxicity”.
`CCOC(=O)C1CCc2nc3ccccc3c(N)c2C1` (stereo not drawn) [Compound 16, ethyl 9-amino-1,2,3,4-tetrahydroacridine-2-carboxylate]: the IC50 in data set [1] is 42.2 ± 2.7 nM; in data set [2], 3820 ± 250 nM. In addition, in data set [3], the “antagonism of NMDAR activity, in words” value is given as “could not effectively block NMDAR activity”.
